What was measured:
[1] = system: G. vaginalis, standard microorganism (ATCC 14018); test: Antibiotic disk diffusion assay; assay type: cell-based, Gardnerella vaginalis; details: G. vaginalis ATCC 14018, Columbia agar with 5% human red blood cell solution
Experimental: To screen antibiotics to which Gardnerella vaginalis (G. vaginalis) is sensitive, and are resistant to probiotics, antibiotics were tested using a disk diffusion assay.
(§1) Columbia agar containing a 5% human red blood cell solution was used as a media for Gardnerella vaginalis (G. vaginalis, ATCC 14018) and a MRS agar was used as a media for the strains of the present invention (S. denitnficans YH1 and L. crispatus YH2). As the antibiotic disk, a product manufactured by OXIOD was used.
(§2) As described above, augmentin, metronidazole, and clindamycin were applied to a wild-type Gardnerella vaginalis (G. vaginalis) strain obtained from 33 patients suffering from bacterial vaginosis and a standard microorganism (ATCC 14018) and subjected to a test using a disk diffusion assay.

S. denitrificans YH1 = test: Antibiotic disk diffusion assay; assay type: cell-based; details: S. denitrificans YH1, MRS agar
Experimental: as §1, with “To screen antibiotics to which Gardnerella vaginalis (G. vaginalis) is sensitive, and are resistant to probiotics, antibiotics were tested using a disk diffusion assay. Columbia” for “Columbia”, “([…]1” for “(S. denitnficans YH1”

L. crispatus YH2 = test: Antibiotic disk diffusion assay; assay type: cell-based, Lactobacillus crispatus; details: L. crispatus YH2, MRS agar
Experimental: as §1, with “To screen antibiotics to which Gardnerella vaginalis (G. vaginalis) is sensitive, and are resistant to probiotics, antibiotics were tested using a disk diffusion assay. Columbia” for “Columbia”, “([…]1” for “(S. denitnficans YH1”

[2] = system: wild-type Gardnerella vaginalis (G. vaginalis) strain obtained from 33 patients suffering from bacterial vaginosis; test: Antibiotic disk diffusion assay on clinical isolates; assay type: cell-based; details: for Diameter of inhibition zone per antibiotic, Average ± SD: average over the G. vaginalis strains of Table 11
Description: as §1, §2

[3] = G. vaginalis strain 14-1, biotype 1
[4] = G. vaginalis strain 14-2, biotype 5
[5] = G. vaginalis strain 14-3, biotype 4
[6] = G. vaginalis strain 14-4, biotype 6
[7] = G. vaginalis strain 14-5, biotype 4
[8] = G. vaginalis strain 14-6, biotype 1
[9] = G. vaginalis strain 14-7, biotype 5
[10] = G. vaginalis strain 14-8, biotype 3
[11] = G. vaginalis strain 14-9, biotype 2
[12] = G. vaginalis strain 14-10, biotype 3
[13] = G. vaginalis strain 14-11, biotype 2
[14] = G. vaginalis strain 14-12, biotype 5
[15] = G. vaginalis strain 14-13, biotype 5
[16] = G. vaginalis strain 14-14, biotype 4
[17] = G. vaginalis strain 14-15, biotype 5
[18] = G. vaginalis strain 14-16, biotype 8
[19] = G. vaginalis strain 14-17, biotype 5
[20] = G. vaginalis strain 14-19, biotype 5
[21] = G. vaginalis strain 14-20, biotype 7
[22] = G. vaginalis strain 14-21, biotype 8
[23] = G. vaginalis strain 14-23, biotype 8
[24] = G. vaginalis strain 14-24, biotype 8
[25] = G. vaginalis strain 14-25, biotype 5
[26] = G. vaginalis strain 14-26, biotype 5
[27] = G. vaginalis strain 14-27, biotype 4
[28] = G. vaginalis strain 14-28, biotype 5
[29] = G. vaginalis strain 14-29, biotype 5
[30] = G. vaginalis strain 14-30, biotype 5
[31] = G. vaginalis strain 14-32, biotype 5
[32] = G. vaginalis strain 14-33, biotype 7
[33] = G. vaginalis strain 14-34, biotype 5
[34] = G. vaginalis strain 14-36, biotype 5
[35] = G. vaginalis strain 14-37, biotype 1

CC1(C)S[C@@H]2[C@H](NC(=O)C(C(=O)O)c3ccccc3)C(=O)N2[C@H]1C(=O)O (stereo partly shown) [Carbenicillin]
40 mm: diameter of inhibition zone [1]
35 mm: diameter of inhibition zone (S. denitrificans YH1) | diameter of inhibition zone (L. crispatus YH2)

CN[C@H](CC(C)C)C(=O)N[C@H]1C(=O)N[C@@H](CC(N)=O)C(=O)N[C@H]2C(=O)N[C@H]3C(=O)N[C@H](C(=O)N[C@H](C(=O)O)c4cc(O)cc(O)c4-c4cc3ccc4O)[C@H](O)c3ccc(c(Cl)c3)Oc3cc2cc(c3O[C@@H]2O[C@H](CO)[C@@H](O)[C@H](O)[C@H]2O[C@H]2C[C@](C)(N)[C@H](O)[C@H](C)O2)Oc2ccc(cc2Cl)[C@H]1O [Vancomycin]
35 mm: diameter of inhibition zone (S. denitrificans YH1) | diameter of inhibition zone (L. crispatus YH2)
40 mm: diameter of inhibition zone [1]

Cc1onc(-c2ccccc2)c1C(=O)N[C@@H]1C(=O)N2[C@@H]1SC(C)(C)[C@@H]2C(=O)O [Oxacillin]
0 mm: diameter of inhibition zone [1] | diameter of inhibition zone (S. denitrificans YH1) | diameter of inhibition zone (L. crispatus YH2)

CO/N=C(\C(=O)N[C@@H]1C(=O)N2C(C(=O)O)=C(COC(C)=O)CS[C@H]12)c1csc(N)n1 [Cefotaxime]
10 mm: diameter of inhibition zone [1]
0 mm: diameter of inhibition zone (S. denitrificans YH1) | diameter of inhibition zone (L. crispatus YH2)

Gentamicin
0 mm: diameter of inhibition zone [1] | diameter of inhibition zone (S. denitrificans YH1) | diameter of inhibition zone (L. crispatus YH2)

C[C@@H](O)[C@H]1C(=O)N2C(C(=O)O)=C(SCCN=CN)C[C@H]12 [Imipenem]
25 mm: diameter of inhibition zone (L. crispatus YH2)
40 mm: diameter of inhibition zone [1]
30 mm: diameter of inhibition zone (S. denitrificans YH1)

CC1(C)S[C@@H]2[C@H](NC(=O)[C@H](N)c3ccccc3)C(=O)N2[C@H]1C(=O)O [Ampicillin]
10 mm: diameter of inhibition zone [1]
0 mm: diameter of inhibition zone (S. denitrificans YH1) | diameter of inhibition zone (L. crispatus YH2)

Augmentin
60 mm: Diameter of inhibition zone per antibiotic [2, 3] | Diameter of inhibition zone per antibiotic [2, 8] | Diameter of inhibition zone per antibiotic [2, 13] | Diameter of inhibition zone per antibiotic [2, 21] | Diameter of inhibition zone per antibiotic [2, 25] | Diameter of inhibition zone per antibiotic [2, 35] | diameter of inhibition zone [1]
50 mm: Diameter of inhibition zone per antibiotic [2, 10] | Diameter of inhibition zone per antibiotic [2, 22] | Diameter of inhibition zone per antibiotic [2, 24] | Diameter of inhibition zone per antibiotic [2, 26] | Diameter of inhibition zone per antibiotic [2, 27] | Diameter of inhibition zone per antibiotic [2, 31]
45 mm: Diameter of inhibition zone per antibiotic [2, 6] | Diameter of inhibition zone per antibiotic [2, 17] | Diameter of inhibition zone per antibiotic [2, 18] | Diameter of inhibition zone per antibiotic [2, 32]
44.9±9.5 mm: Diameter of inhibition zone per antibiotic, Average ± SD [2]
40 mm: Diameter of inhibition zone per antibiotic [2, 5] | Diameter of inhibition zone per antibiotic [2, 7] | Diameter of inhibition zone per antibiotic [2, 9] | Diameter of inhibition zone per antibiotic [2, 16] | Diameter of inhibition zone per antibiotic [2, 20] | Diameter of inhibition zone per antibiotic [2, 29] | Diameter of inhibition zone per antibiotic [2, 33] | Diameter of inhibition zone per antibiotic [2, 34]
33 mm: Diameter of inhibition zone per antibiotic [2, 4]
no strain was resistant: resistance of the G. vaginalis strains, in words ([2]; strains of Table 11)
35 mm: Diameter of inhibition zone per antibiotic [2, 11] | Diameter of inhibition zone per antibiotic [2, 12] | Diameter of inhibition zone per antibiotic [2, 14] | Diameter of inhibition zone per antibiotic [2, 19] | Diameter of inhibition zone per antibiotic [2, 23]
55 mm: Diameter of inhibition zone per antibiotic [2, 30]
30 mm: Diameter of inhibition zone per antibiotic [2, 15] | Diameter of inhibition zone per antibiotic [2, 28]

CCC[C@@H]1C[C@@H](C(=O)N[C@@H]([C@H]2O[C@H](SC)[C@H](O)[C@@H](O)[C@H]2O)[C@H](C)Cl)N(C)C1 [Clindamycin]
55.45±5.5 mm: Diameter of inhibition zone per antibiotic, Average ± SD ([2]; listed as clindamycin)
55 mm: Diameter of inhibition zone per antibiotic [2, 5] | Diameter of inhibition zone per antibiotic [2, 12] | Diameter of inhibition zone per antibiotic [2, 15] | Diameter of inhibition zone per antibiotic [2, 19] | Diameter of inhibition zone per antibiotic [2, 20] | Diameter of inhibition zone per antibiotic [2, 23] | Diameter of inhibition zone per antibiotic [2, 25] | Diameter of inhibition zone per antibiotic [2, 27] | Diameter of inhibition zone per antibiotic [2, 32] | diameter of inhibition zone [1]
65 mm: Diameter of inhibition zone per antibiotic [2, 26] | Diameter of inhibition zone per antibiotic [2, 29] | Diameter of inhibition zone per antibiotic [2, 30]
60 mm: Diameter of inhibition zone per antibiotic [2, 4] | Diameter of inhibition zone per antibiotic [2, 9] | Diameter of inhibition zone per antibiotic [2, 13] | Diameter of inhibition zone per antibiotic [2, 17] | Diameter of inhibition zone per antibiotic [2, 18] | Diameter of inhibition zone per antibiotic [2, 28] | Diameter of inhibition zone per antibiotic [2, 31] | Diameter of inhibition zone per antibiotic [2, 33] | Diameter of inhibition zone per antibiotic [2, 34] | Diameter of inhibition zone per antibiotic [2, 35]
45 mm: Diameter of inhibition zone per antibiotic [2, 7] | Diameter of inhibition zone per antibiotic [2, 8]
55.45 ± 5.5 mm: Diameter of inhibition zone per antibiotic, Average ± SD [2]
50 mm: Diameter of inhibition zone per antibiotic [2, 3] | Diameter of inhibition zone per antibiotic [2, 6] | Diameter of inhibition zone per antibiotic [2, 10] | Diameter of inhibition zone per antibiotic [2, 11] | Diameter of inhibition zone per antibiotic [2, 14] | Diameter of inhibition zone per antibiotic [2, 16] | Diameter of inhibition zone per antibiotic [2, 21] | Diameter of inhibition zone per antibiotic [2, 22] | Diameter of inhibition zone per antibiotic [2, 24]

Trimethoprim sulfamethoxazole
0 mm: diameter of inhibition zone [1] | diameter of inhibition zone (S. denitrificans YH1) | diameter of inhibition zone (L. crispatus YH2)

Cc1ncc([N+](=O)[O-])n1CCO [Metronidazole]
35 mm: Diameter of inhibition zone per antibiotic [2, 6] | Diameter of inhibition zone per antibiotic [2, 7] | Diameter of inhibition zone per antibiotic [2, 16]
32 mm: Diameter of inhibition zone per antibiotic [2, 8]
64%: share of wild-type G. vaginalis strains on which no inhibitory effect was shown ([2]; 21 of 33 wild-type strains, metronidazole 50 μg/disc)
33 mm: Diameter of inhibition zone per antibiotic [2, 23]
0 mm: Diameter of inhibition zone per antibiotic [2, 4] | Diameter of inhibition zone per antibiotic [2, 9] | Diameter of inhibition zone per antibiotic [2, 10] | Diameter of inhibition zone per antibiotic [2, 11] | Diameter of inhibition zone per antibiotic [2, 12] | Diameter of inhibition zone per antibiotic [2, 13] | Diameter of inhibition zone per antibiotic [2, 14] | Diameter of inhibition zone per antibiotic [2, 15] | Diameter of inhibition zone per antibiotic [2, 17] | Diameter of inhibition zone per antibiotic [2, 19] | Diameter of inhibition zone per antibiotic [2, 20] | Diameter of inhibition zone per antibiotic [2, 21] | Diameter of inhibition zone per antibiotic [2, 26] | Diameter of inhibition zone per antibiotic [2, 27] | Diameter of inhibition zone per antibiotic [2, 28] | Diameter of inhibition zone per antibiotic [2, 29] | Diameter of inhibition zone per antibiotic [2, 30] | Diameter of inhibition zone per antibiotic [2, 31] | Diameter of inhibition zone per antibiotic [2, 32] | Diameter of inhibition zone per antibiotic [2, 33] | Diameter of inhibition zone per antibiotic [2, 34] | diameter of inhibition zone [1]
40 mm: Diameter of inhibition zone per antibiotic [2, 5]
20 to 40 mm: zone of inhibition at 50 µg/disc ([2]; Gardnerella vaginalis, 12 sensitive wild-type strains, metronidazole 50 μg/disc, read-out: inhibition zones for the remaining 12 strains)
30 mm: Diameter of inhibition zone per antibiotic [2, 22]
20 mm: Diameter of inhibition zone per antibiotic [2, 24] | Diameter of inhibition zone per antibiotic [2, 35]
25 mm: Diameter of inhibition zone per antibiotic [2, 18] | Diameter of inhibition zone per antibiotic [2, 25]
93%: share of Biotype 5 strains completely resistant ([2]; Biotype 5, 14 of 15 strains)
27 mm: Diameter of inhibition zone per antibiotic [2, 3]

CC1(C)S[C@@H]2[C@H](NC(=O)Cc3ccccc3)C(=O)N2[C@H]1C(=O)O [Penicillin G]
0 mm: diameter of inhibition zone (S. denitrificans YH1) | diameter of inhibition zone (L. crispatus YH2)
10 mm: diameter of inhibition zone [1]

Source: patent US10016469B2, “Composition comprising antifungal agents for treating vulvovaginitis and vaginosis” (Two Lines Co., Ltd., priority 2015, dated 2018)
